Consider four compounds from patent US9242997B2, “Tricyclic pyrazole sulphonamide compunds and methods of making and using same” (Zafgen, Inc., priority 2011, dated 2016).

As usually defined, the IC50 is the midpoint of a concentration-inhibition curve.

Bounds are passed on as bounds.

The target of this experiment is T1, Human recombinant MetAP2 (Homo sapiens, UniProt P50579).
T1 construct: made in house; host or cells: Sf9 insect cells
Description: recombinant human MetAP2 inhibition assay (MAS substrate, amino acid oxidase/Amplex red fluorescence). It is filed as biochemical. The conditions noted are these: manganese enzyme, 30 minutes at 25° C., pH 7.5, 0.75 mM MAS substrate, 1% DMSO. Here is the method:
Compounds are tested for their capacity to inhibit recombinant human MetAP2 activity using the following assay.
Human recombinant MetAP2 expressed in Sf9 cells followed by affinity purification and EDTA treatment to remove endogenous active site cation was dialysed against MnCl2 to produce the manganese enzyme used in the assay. The assay was carried out for 30 minutes at 25° C. in 50 mM HEPES buffer containing 100 mM NaCl, pH 7.5 the presence of 0.75 mM Methionine-Alanine-Serine (MAS) substrate and 50 μg/ml amino acid oxidase using a dilution of purified MetAP2 giving>3-fold signal: noise. Cleavage of the substrate by MetAP2 and oxidation of free methionine by amino acid oxidase was detected and quantified using fluorescence generated by Amplex red (10-acetyl-3,7-dihydroxyphenoxazine) in combination with horseradish peroxidase which detects H2O2 released during the oxidation step. The fluorescent signal was detected using a multiwell fluorimeter. Compounds were diluted in DMSO prior to addition to assay buffer, the final DMSO concentration in the assay being 1%.
The IC50 is defined as the concentration at which a given compound achieves 50% inhibition of control. IC50 values are calculated using the XLfit software package (version 2.0.5).

T1 sequence (P50579 whole entry): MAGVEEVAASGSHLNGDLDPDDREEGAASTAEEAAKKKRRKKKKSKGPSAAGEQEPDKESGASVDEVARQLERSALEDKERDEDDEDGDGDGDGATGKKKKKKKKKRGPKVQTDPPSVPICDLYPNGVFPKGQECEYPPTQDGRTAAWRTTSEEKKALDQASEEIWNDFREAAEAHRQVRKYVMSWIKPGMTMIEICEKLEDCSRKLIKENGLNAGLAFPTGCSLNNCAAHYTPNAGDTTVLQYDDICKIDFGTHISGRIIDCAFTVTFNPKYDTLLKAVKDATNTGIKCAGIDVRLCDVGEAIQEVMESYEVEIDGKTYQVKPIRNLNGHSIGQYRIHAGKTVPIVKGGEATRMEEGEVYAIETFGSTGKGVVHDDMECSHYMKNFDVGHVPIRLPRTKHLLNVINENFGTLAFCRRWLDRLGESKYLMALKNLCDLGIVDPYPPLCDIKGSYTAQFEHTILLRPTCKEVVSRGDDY

Turning to `CCN(CC)C/C=C\c1cc(F)ccc1S(=O)(=O)Nc1ccc2c(ccn3nccc23)c1C(=O)O` [Example 1, 8-[2-((Z)-3-Diethylaminoprop-1-enyl)-4-fluorobenzenesulfonylamino]-pyrazolo[5,1-a]isoquinoline-7-carboxylic acid], the IC50 was less than 50 nM.

Take `CCN(CC)C/C=C\c1cc(F)ccc1S(=O)(=O)Nc1ccc2c(c1C(=O)O)OCc1cccn1-2` [Example 2, 7-[2-((Z)-3-Diethylaminoprop-1-enyl)-4-fluorobenzenesulfonylamino]-4H-benzo[b]pyrrolo[1,2-d][1,4]oxazine-6-carboxylic acid]: the IC50 is less than 50 nM.

For `CCN(CC)C/C=C\c1cc(F)ccc1S(=O)(=O)Nc1ccc2c(c1C(=O)O)CCn1nccc1-2` [Example 3, 8-[2-((Z)-3-Diethylaminoprop-1-enyl)-4-fluorobenzenesulfonylamino]-5,6-dihydropyrazolo[5,1-a]isoquinoline-7-carboxylic acid], the IC50 is 50 to 500 nM.

Turning to `CCN(CC)C/C=C\c1cc(F)ccc1S(=O)(=O)Nc1ccc2c(c1C(=O)O)OCc1nccn1-2` [Example 4, 7-[2-((Z)-3-Diethylaminoprop-1-enyl)-4-fluorobenzenesulfonylamino]-4H-5-oxa-3,9b-diazacyclopenta[a]naphthalene-6-carboxylic acid], the half-maximal inhibitory concentration (IC50) is less than 50 nM.
